Measured values: article PMC8037182, “Solvothermal Synthesis of Multiple Dihydropyrimidinones at a Time as Inhibitors of Eg5” (Molecules, 2021)
pIC50: −log10 of the molar value.

Assays:
[1] = test system: T24 cell line; assay: Cytotoxicity MTS assay, T24 cell line; format: cell-based; settings: for OD490 Mean / OD490 Well 1 / OD490 Well 2 / OD490 Well 3: T24 cell line
Description: (§1) The positive compounds (IC50 < 100 μM) obtained from the primary Eg5 motor protein ATPase assay were tested for antiproliferative activity in vitro against Caco-2 cell line, Hela cell line, L929 cell line and T24 cell line by performing MTS assay. Cells were introduced into 96-well plates at a density of 1000 cells per well. After 24 h incubation, the cells were exposed with compounds at final concentrations ranging from 0.5 to 100 µM for 24 h. DMSO was used at a final concentration of 0.025% as blank control, monastrol was used as the positive control. Then 20 µL (CellTiter 96® AQueous One Solution Promega, Madison, WI, USA) reagent was added in each well. After 2 h at 37 °C in a 80% humidified, 5% CO2 atmosphere, the absorbance at 490 nm was recorded using a microplate reader (BIO-RAD iMark^TM). The results were obtained in three independent duplicate experiments. The primary data were shown in Supplementary Materials Tables S4–S7. The IC50 values for these compounds were calculated from a non-linear regression graph plotted between the percentage of cell viability and concentration with SPSS17.0 software.

[2] = test system: Caco-2 cell line; assay: Cytotoxicity MTS assay, Caco-2 cell line; format: cell-based; settings: for OD490 Mean / OD490 Well 1 / OD490 Well 2 / OD490 Well 3: Caco-2 cell line
Description: as §1

`CCOc1ccccc1C1NC(=S)NC(C)=C1C(=O)Nc1ccc(Cl)cc1` (centres unmarked) [C9] was tested, and the pIC50 ([1]; Homo sapiens, T-24, MTS assay, 24 h exposure) was 3.99, the “OD490 Mean” value ([1]; 0.5μM, first assay) was 1.7287 and the “OD490 Well 1” value ([1]; 0.5μM, first assay) was 1.7105. For the same molecule, the “OD490 Well 2” value ([1]; 0.5μM, first assay) was 1.7618, the “OD490 Well 3” value ([1]; 0.5μM, first assay) was 1.7137 and the “OD490 Mean” value ([1]; 0.5μM, second assay) was 1.6993. For the same molecule, the “OD490 Well 1” value ([1]; 0.5μM, second assay) was 1.7012, the “OD490 Well 2” value ([1]; 0.5μM, second assay) was 1.6854 and the “OD490 Well 3” value ([1]; 0.5μM, second assay) was 1.7112. The “OD490 Mean” value ([1]; 0.5μM, third assay) was 1.6796, the “OD490 Well 1” value ([1]; 0.5μM, third assay) was 1.7151 and the “OD490 Well 2” value ([1]; 0.5μM, third assay) was 1.6985. The “OD490 Well 3” value ([1]; 0.5μM, third assay) was 1.6252, the “OD490 Mean” value ([1]; 1μM, first assay) was 1.7475 and the “OD490 Well 1” value ([1]; 1μM, first assay) was 1.7891. The “OD490 Well 2” value ([1]; 1μM, first assay) was 1.7321, the “OD490 Well 3” value ([1]; 1μM, first assay) was 1.7213 and the “OD490 Mean” value ([1]; 1μM, second assay) was 1.6914. The “OD490 Well 1” value ([1]; 1μM, second assay) was 1.6854, the “OD490 Well 2” value ([1]; 1μM, second assay) was 1.6687 and the “OD490 Well 3” value ([1]; 1μM, second assay) was 1.7201. For the same molecule, the “OD490 Mean” value ([1]; 1μM, third assay) was 1.6844, the “OD490 Well 1” value ([1]; 1μM, third assay) was 1.6654 and the “OD490 Well 2” value ([1]; 1μM, third assay) was 1.6854. The “OD490 Well 3” value ([1]; 1μM, third assay) was 1.7023, the “OD490 Mean” value ([1]; 10μM, first assay) was 1.7610 and the “OD490 Well 1” value ([1]; 10μM, first assay) was 1.7529. The “OD490 Well 2” value ([1]; 10μM, first assay) was 1.7204, the “OD490 Well 3” value ([1]; 10μM, first assay) was 1.8096 and the “OD490 Mean” value ([1]; 10μM, second assay) was 1.6914. For the same molecule, the “OD490 Well 1” value ([1]; 10μM, second assay) was 1.6952, the “OD490 Well 2” value ([1]; 10μM, second assay) was 1.7032 and the “OD490 Well 3” value ([1]; 10μM, second assay) was 1.6758. The “OD490 Mean” value ([1]; 10μM, third assay) was 1.6899, the “OD490 Well 1” value ([1]; 10μM, third assay) was 1.6523 and the “OD490 Well 2” value ([1]; 10μM, third assay) was 1.6854. The “OD490 Well 3” value ([1]; 10μM, third assay) was 1.7320, the “OD490 Mean” value ([1]; 25μM, first assay) was 1.6722 and the “OD490 Well 1” value ([1]; 25μM, first assay) was 1.6737. The “OD490 Well 2” value ([1]; 25μM, first assay) was 1.6555, the “OD490 Well 3” value ([1]; 25μM, first assay) was 1.6875 and the “OD490 Mean” value ([1]; 25μM, second assay) was 1.5562. For the same molecule, the “OD490 Well 1” value ([1]; 25μM, second assay) was 1.5784, the “OD490 Well 2” value ([1]; 25μM, second assay) was 1.5687 and the “OD490 Well 3” value ([1]; 25μM, second assay) was 1.5214. The “OD490 Mean” value ([1]; 25μM, third assay) was 1.5261, the “OD490 Well 1” value ([1]; 25μM, third assay) was 1.5255 and the “OD490 Well 2” value ([1]; 25μM, third assay) was 1.4895. The “OD490 Well 3” value ([1]; 25μM, third assay) was 1.5632, the “OD490 Mean” value ([1]; 50μM, first assay) was 1.4241 and the “OD490 Well 1” value ([1]; 50μM, first assay) was 1.3950. For the same molecule, the “OD490 Well 2” value ([1]; 50μM, first assay) was 1.4682, the “OD490 Well 3” value ([1]; 50μM, first assay) was 1.4091 and the “OD490 Mean” value ([1]; 50μM, second assay) was 1.2984. The “OD490 Well 1” value ([1]; 50μM, second assay) was 1.3242, the “OD490 Well 2” value ([1]; 50μM, second assay) was 1.3021 and the “OD490 Well 3” value ([1]; 50μM, second assay) was 1.2688. The “OD490 Mean” value ([1]; 50μM, third assay) was 1.2717, the “OD490 Well 1” value ([1]; 50μM, third assay) was 1.2854 and the “OD490 Well 2” value ([1]; 50μM, third assay) was 1.2312. For the same molecule, the “OD490 Well 3” value ([1]; 50μM, third assay) was 1.2985, the “OD490 Mean” value ([1]; 100μM, first assay) was 1.1300 and the “OD490 Well 1” value ([1]; 100μM, first assay) was 1.1347. For the same molecule, the “OD490 Well 2” value ([1]; 100μM, first assay) was 1.0869, the “OD490 Well 3” value ([1]; 100μM, first assay) was 1.1684 and the “OD490 Mean” value ([1]; 100μM, second assay) was 1.0488. For the same molecule, the “OD490 Well 1” value ([1]; 100μM, second assay) was 1.1133, the “OD490 Well 2” value ([1]; 100μM, second assay) was 1.0101 and the “OD490 Well 3” value ([1]; 100μM, second assay) was 1.0230. For the same molecule, the “OD490 Mean” value ([1]; 100μM, third assay) was 1.0526, the “OD490 Well 1” value ([1]; 100μM, third assay) was 1.0120 and the “OD490 Well 2” value ([1]; 100μM, third assay) was 1.1123. For the same molecule, the “OD490 Well 3” value ([1]; 100μM, third assay) was 1.0334, the “OD490 Mean” value ([2]; 0.5μM, first assay) was 0.6579 and the “OD490 Well 1” value ([2]; 0.5μM, first assay) was 0.6600. For the same molecule, the “OD490 Well 2” value ([2]; 0.5μM, first assay) was 0.6452, the “OD490 Well 3” value ([2]; 0.5μM, first assay) was 0.6685 and the “OD490 Mean” value ([2]; 0.5μM, second assay) was 0.6430. The “OD490 Well 1” value ([2]; 0.5μM, second assay) was 0.6499, the “OD490 Well 2” value ([2]; 0.5μM, second assay) was 0.6217 and the “OD490 Well 3” value ([2]; 0.5μM, second assay) was 0.6574. The “OD490 Mean” value ([2]; 0.5μM, third assay) was 0.6809, the “OD490 Well 1” value ([2]; 0.5μM, third assay) was 0.6676 and the “OD490 Well 2” value ([2]; 0.5μM, third assay) was 0.6999. The “OD490 Well 3” value ([2]; 0.5μM, third assay) was 0.6752, the “OD490 Mean” value ([2]; 1μM, first assay) was 0.6557 and the “OD490 Well 1” value ([2]; 1μM, first assay) was 0.6594. The “OD490 Well 2” value ([2]; 1μM, first assay) was 0.6683, the “OD490 Well 3” value ([2]; 1μM, first assay) was 0.6393 and the “OD490 Mean” value ([2]; 1μM, second assay) was 0.6328. For the same molecule, the “OD490 Well 1” value ([2]; 1μM, second assay) was 0.6398, the “OD490 Well 2” value ([2]; 1μM, second assay) was 0.6387 and the “OD490 Well 3” value ([2]; 1μM, second assay) was 0.6200. For the same molecule, the “OD490 Mean” value ([2]; 1μM, third assay) was 0.6578, the “OD490 Well 1” value ([2]; 1μM, third assay) was 0.6898 and the “OD490 Well 2” value ([2]; 1μM, third assay) was 0.6914. For the same molecule, the “OD490 Well 3” value ([2]; 1μM, third assay) was 0.5921, the “OD490 Mean” value ([2]; 10μM, first assay) was 0.6390 and the “OD490 Well 1” value ([2]; 10μM, first assay) was 0.5664. For the same molecule, the “OD490 Well 2” value ([2]; 10μM, first assay) was 0.6539, the “OD490 Well 3” value ([2]; 10μM, first assay) was 0.6968 and the “OD490 Mean” value ([2]; 10μM, second assay) was 0.5939. The “OD490 Well 1” value ([2]; 10μM, second assay) was 0.5553, the “OD490 Well 2” value ([2]; 10μM, second assay) was 0.5431 and the “OD490 Well 3” value ([2]; 10μM, second assay) was 0.6832. The “OD490 Mean” value ([2]; 10μM, third assay) was 0.6521, the “OD490 Well 1” value ([2]; 10μM, third assay) was 0.6349 and the “OD490 Well 2” value ([2]; 10μM, third assay) was 0.6214. The “OD490 Well 3” value ([2]; 10μM, third assay) was 0.7001, the “OD490 Mean” value ([2]; 25μM, first assay) was 0.5635 and the “OD490 Well 1” value ([2]; 25μM, first assay) was 0.5780. For the same molecule, the “OD490 Well 2” value ([2]; 25μM, first assay) was 0.5488, the “OD490 Well 3” value ([2]; 25μM, first assay) was 0.5637 and the “OD490 Mean” value ([2]; 25μM, second assay) was 0.5347. The “OD490 Well 1” value ([2]; 25μM, second assay) was 0.5232, the “OD490 Well 2” value ([2]; 25μM, second assay) was 0.5214 and the “OD490 Well 3” value ([2]; 25μM, second assay) was 0.5594. The “OD490 Mean” value ([2]; 25μM, third assay) was 0.6041, the “OD490 Well 1” value ([2]; 25μM, third assay) was 0.6789 and the “OD490 Well 2” value ([2]; 25μM, third assay) was 0.5214. The “OD490 Well 3” value ([2]; 25μM, third assay) was 0.6121, the “OD490 Mean” value ([2]; 50μM, first assay) was 0.4407 and the “OD490 Well 1” value ([2]; 50μM, first assay) was 0.4378. For the same molecule, the “OD490 Well 2” value ([2]; 50μM, first assay) was 0.4511, the “OD490 Well 3” value ([2]; 50μM, first assay) was 0.4331 and the “OD490 Mean” value ([2]; 50μM, second assay) was 0.4117. For the same molecule, the “OD490 Well 1” value ([2]; 50μM, second assay) was 0.3953, the “OD490 Well 2” value ([2]; 50μM, second assay) was 0.4678 and the “OD490 Well 3” value ([2]; 50μM, second assay) was 0.3721. The “OD490 Mean” value ([2]; 50μM, third assay) was 0.4510, the “OD490 Well 1” value ([2]; 50μM, third assay) was 0.4963 and the “OD490 Well 2” value ([2]; 50μM, third assay) was 0.3954. The “OD490 Well 3” value ([2]; 50μM, third assay) was 0.4613, the “OD490 Mean” value ([2]; 100μM, first assay) was 0.3208 and the “OD490 Well 1” value ([2]; 100μM, first assay) was 0.2950. For the same molecule, the “OD490 Well 2” value ([2]; 100μM, first assay) was 0.3313, the “OD490 Well 3” value ([2]; 100μM, first assay) was 0.3360 and the “OD490 Mean” value ([2]; 100μM, second assay) was 0.2995. For the same molecule, the “OD490 Well 1” value ([2]; 100μM, second assay) was 0.2898, the “OD490 Well 2” value ([2]; 100μM, second assay) was 0.3121 and the “OD490 Well 3” value ([2]; 100μM, second assay) was 0.2965. For the same molecule, the “OD490 Mean” value ([2]; 100μM, third assay) was 0.3309, the “OD490 Well 1” value ([2]; 100μM, third assay) was 0.3633 and the “OD490 Well 2” value ([2]; 100μM, third assay) was 0.2374. For the same molecule, the “OD490 Well 3” value ([2]; 100μM, third assay) was 0.3921 and the pIC50 ([2]; Homo sapiens, Caco-2, MTS assay, 24 h exposure) was 4.18.
